# Laboratory results taken from patent publication US5486511A, “4-amino-17β-(cyclopropyloxy)androst-4-en-3-one, 4-amino-17β-(cyclopropylamino)androst-4-en-3-one and related compounds as C17-20 lyase and 5α-reductase” (Merrell Dow Pharmaceuticals Inc., priority 1994, dated 1996).
# Legend:
# [1] = molecular target: T1, cynomolgus monkey C17,20 lyase (Macaca fascicularis, UniProt Q2XVA1); test: Inhibition of cynomolgus monkey steroid C17,20 lyase (testicular microsomes), time dependent, Kitz-Wilson; format: biochemical
# T1 construct: microsomes were isolated from human, cynomolgus monkey, dog, rat or athymic nude mouse testicular tissue; from tissue; host or cells: cynomolgus monkey testis microsomes
# T1 sequence (Q2XVA1 1-508): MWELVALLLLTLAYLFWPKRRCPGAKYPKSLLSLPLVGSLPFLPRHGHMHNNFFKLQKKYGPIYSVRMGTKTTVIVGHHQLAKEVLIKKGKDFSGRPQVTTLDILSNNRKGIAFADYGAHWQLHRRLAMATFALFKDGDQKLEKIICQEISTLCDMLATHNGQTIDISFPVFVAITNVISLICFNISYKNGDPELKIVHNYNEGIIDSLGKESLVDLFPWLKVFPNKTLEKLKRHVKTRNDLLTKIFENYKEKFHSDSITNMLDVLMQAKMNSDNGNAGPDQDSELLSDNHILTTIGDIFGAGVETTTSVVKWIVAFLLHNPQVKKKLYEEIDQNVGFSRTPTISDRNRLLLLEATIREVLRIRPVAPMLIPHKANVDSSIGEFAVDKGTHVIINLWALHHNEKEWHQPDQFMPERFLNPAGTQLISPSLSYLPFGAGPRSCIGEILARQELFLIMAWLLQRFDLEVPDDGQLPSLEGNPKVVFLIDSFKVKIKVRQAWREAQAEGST
# Method: The activity of the present compounds as inhibitors of steroid C17,20 lyase was established using microsomal preparations of the steroid C17,20 lyase enzyme from human or laboratory animal testes. Human testes used for this purpose were obtained from therapeutic orchiectomies. Specifically, microsomes were isolated from human, cynomolgus monkey, dog, rat or athymic nude mouse testicular tissue. The compound to be tested was dissolved in dimethyl sulfoxide and diluted in 0.05M potassium phosphate buffer to give the desired concentrations of the test compound. The potassium phosphate buffer was at pH 7.4 for the human, monkey and dog lyase assays and at pH 7.2 for the rat and athymic nude mouse lyase assays. Assays also contained 1 mM NADPH, 5 mM glucose-6-phosphate, 1 IU/ml glucose-6-phosphate dehydrogenase (an NADPH regenerating system) and microsomal protein in a total volume of 0.2 mL. Control assays contained all components including dimethyl sulfoxide, but with no test compound. All assays were performed in duplicate. For determination of time dependent C17,20 lyase inactivation, the test compound was incubated with 20 to 60 μg/ml microsomal protein, buffer, and the NADPH regenerating system described above at 34° C. for 0 or 40 minutes. Aliquots (180 μl) were then removed and assayed for enzyme activity by addition to tritiated steroid substrate plus unlabeled steroid substrate to give a 200 μl total assay volume, and were subsequently incubated at 34° C. for 6 minutes. For determination of reversible inhibition by the test compound, the reaction was initiated by addition of substrate. The radiolabeled substrate used for human, cynomolgus monkey and dog lyase was [7-^3 H]-17α-hydroxypregnenolone, 11.2 Ci/mmole, 0.2 μCi total activity per assay. Unlabeled 17α-hydroxypregnenolone was added to give a total concentration of 1.0 μM or 0.3 μM for the human and monkey enzymes, and 0.08 μM for the canine enzyme. […] The radiolabeled substrate used for the rodent enzymes were [1,2-^3 H]-17α-hydroxyprogesterone (40-57 Ci/mmol; 0.2 μCi per assay). Unlabeled 17α-hydroxyprogesterone was added to give a total concentration of 0.1 μM for the rat enzyme (Km =0.1 μM) and 0.03 μM (Km =0.03 μM) for the athymic nude mouse enzyme. The total assay volume was 200 μl. The complete assay was incubated at 34° C. for 6 minutes. Each reaction was stopped by the addition of 5 ml of chloroform:methanol (2:1). […] Radioactivity in the steroid peaks was measured by a Radiomatic Model HS Flo-One detector.
# (§1) The enzyme activity for each incubate was calculated from the percent conversion of substrate to products, and the results were expressed as percent inhibition of control. […] The Ki and kinact for time dependent inhibitors were determined by graphical analysis of Kitz-Wilson plots. […]
# human lyase = molecular target: T2, human lyase (Homo sapiens, UniProt P05093); test: Inhibition of human steroid C17,20 lyase (testicular microsomes); format: biochemical
# T2 construct: microsomes were isolated from human, cynomolgus monkey, dog, rat or athymic nude mouse testicular tissue; from tissue; host or cells: human testis microsomes (therapeutic orchiectomies)
# T2 sequence (P05093 1-508): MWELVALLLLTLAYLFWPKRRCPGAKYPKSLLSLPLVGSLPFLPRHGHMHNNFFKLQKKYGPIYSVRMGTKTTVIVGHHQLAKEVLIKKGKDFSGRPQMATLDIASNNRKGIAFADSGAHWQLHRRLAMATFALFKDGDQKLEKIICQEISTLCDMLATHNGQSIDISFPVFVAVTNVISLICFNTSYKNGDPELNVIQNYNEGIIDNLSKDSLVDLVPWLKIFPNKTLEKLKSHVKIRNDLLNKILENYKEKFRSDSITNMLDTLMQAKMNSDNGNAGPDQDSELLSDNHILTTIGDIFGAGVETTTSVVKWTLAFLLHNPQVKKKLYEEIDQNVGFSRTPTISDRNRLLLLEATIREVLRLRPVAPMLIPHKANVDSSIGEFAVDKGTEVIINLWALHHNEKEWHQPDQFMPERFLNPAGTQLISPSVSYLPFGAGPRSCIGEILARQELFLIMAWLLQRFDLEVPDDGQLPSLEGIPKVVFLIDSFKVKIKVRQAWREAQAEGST
# Method: The activity of the present compounds as inhibitors of steroid C17,20 lyase was established using microsomal preparations of the steroid C17,20 lyase enzyme from human or laboratory animal testes. Human testes used for this purpose were obtained from therapeutic orchiectomies. Specifically, microsomes were isolated from human, cynomolgus monkey, dog, rat or athymic nude mouse testicular tissue. The compound to be tested was dissolved in dimethyl sulfoxide and diluted in 0.05M potassium phosphate buffer to give the desired concentrations of the test compound. The potassium phosphate buffer was at pH 7.4 for the human, monkey and dog lyase assays and at pH 7.2 for the rat and athymic nude mouse lyase assays. Assays also contained 1 mM NADPH, 5 mM glucose-6-phosphate, 1 IU/ml glucose-6-phosphate dehydrogenase (an NADPH regenerating system) and microsomal protein in a total volume of 0.2 mL. Control assays contained all components including dimethyl sulfoxide, but with no test compound. All assays were performed in duplicate. For determination of time dependent C17,20 lyase inactivation, the test compound was incubated with 20 to 60 μg/ml microsomal protein, buffer, and the NADPH regenerating system described above at 34° C. for 0 or 40 minutes. Aliquots (180 μl) were then removed and assayed for enzyme activity by addition to tritiated steroid substrate plus unlabeled steroid substrate to give a 200 μl total assay volume, and were subsequently incubated at 34° C. for 6 minutes. For determination of reversible inhibition by the test compound, the reaction was initiated by addition of substrate. The radiolabeled substrate used for human, cynomolgus monkey and dog lyase was [7-^3 H]-17α-hydroxypregnenolone, 11.2 Ci/mmole, 0.2 μCi total activity per assay. Unlabeled 17α-hydroxypregnenolone was added to give a total concentration of 1.0 μM or 0.3 μM for the human and monkey enzymes, and 0.08 μM for the canine enzyme. […] The radiolabeled substrate used for the rodent enzymes were [1,2-^3 H]-17α-hydroxyprogesterone (40-57 Ci/mmol; 0.2 μCi per assay). Unlabeled 17α-hydroxyprogesterone was added to give a total concentration of 0.1 μM for the rat enzyme (Km =0.1 μM) and 0.03 μM (Km =0.03 μM) for the athymic nude mouse enzyme. The total assay volume was 200 μl. The complete assay was incubated at 34° C. for 6 minutes. Each reaction was stopped by the addition of 5 ml of chloroform:methanol (2:1). Carrier steroids representing substrate and products and 0.8 ml of water were also added at this time. The carrier steroids for the human, monkey and dog lyase assays were 17α-hydroxypregnenolone, dehydroepiandrosterone and androstenediol. Carrier steroids for the rodent lyase assays were 17α-hydroxyprogesterone, androstenedione, and testosterone. The steroids were extracted by the method of Moore and Wilson (Methods in Enzymol., eds. O'Malley, B. W. and Hardman, J. G. 36, 1975, p. 466-474), the organic phase containing the steroids was evaporated using nitrogen gas, the residues dissolved in 18% tetrahydrofuran (v/v) in hexane, and the steroids were separated by HPLC on a Si60 (5 um) column (250×4 mm) using a gradient of 18-22% tetrahydrofuran (v/v) in hexane. Radioactivity in the steroid peaks was measured by a Radiomatic Model HS Flo-One detector.
# as §1, with “plots. When the compounds of the present invention were tested in the above procedure using human lyase, the following results were observed:” for “plots.”
compound,measurement,setting,value
"C[C@]12CC[C@H]3[C@@H](CCC4=C(N)C(=O)CC[C@@]43C)[C@@H]1CC[C@@H]2OC1CC1 [Compound 2, 4-Amino-17β-(cyclopropyloxy)androst-4-en-3-one]",Ki,[1],286 nM
same,kinact,[1],0.0007 s⁻¹
same,inhibition at 1 µM,human lyase; preincubation 0 min,79%
same,inhibition at 1 µM,human lyase; preincubation 40 min,86%
same,inhibition at 10 µM,human lyase; preincubation 0 min,96%
same,inhibition at 10 µM,human lyase; preincubation 40 min,99%
"C[C@]12CC[C@H]3[C@@H](C=CC4=C(N)C(=O)CC[C@@]43C)[C@@H]1CC[C@@H]2OC1CC1 [Compound 1, 4-Amino-17β-(cyclopropyloxy)androsta-4,6-dien-3-one]",Ki,[1],339 nM
same,kinact,[1],0.0009 s⁻¹
same,inhibition at 1 µM,human lyase; preincubation 0 min,69%
same,inhibition at 1 µM,human lyase; preincubation 40 min,84%
same,inhibition at 10 µM,human lyase; preincubation 0 min,95%
same,inhibition at 10 µM,human lyase; preincubation 40 min,98%
